According to US9988606B2, “Generation of airway and lung progenitors and epithelial cells and three-dimensional anterior foregut spheres” (THE TRUSTEES OF COLUMBIA UNIVERSITY IN THE CITY OF NEW YORK, priority 2012, dated 2018):

Key:
RUES2 cells [1] = test: Removing individual factors or blocking signaling pathways during the ventralization stage (d6-d15); assay type: cell-based, human
Procedure: FIG. 3. Effect of removing individual factors or blocking signaling pathways during the ‘ventralization’ stage (d6-d15) on the expression of FOXA2 and NKX2.1 in RUES2 cells cultured according to the protocol shown on the upper right of the figure. 10× tile scans of 9 (3×3) contiguous fields. Immunofluorescence images represent reproducible results from 3 independent experiments.
Day-15, -25 or -48 cultures in 48-well tissue culture plates were fixed with 4% paraformaldehyde for 15 minutes at room temperature and washed twice with PBS. The cells were permeabilized in PBS with 0.25% triton and 5% fetal donkey serum (Jackson ImmunoResearch, West Grove, Pa.) for 30 min and blocked in 5% fetal donkey serum for 2 hours at room temperature. The cell cultures were stained with one, or a combination of two or three of the following primary antibodies: FOXA2/HNF-3β (goat, Santa Cruz Biotechnology, Inc., Santa Cruz, Calif., Cat#sc-6554, clone M-20, 1:50), TTF-1/Nkx2.1 (mouse, Invitrogen, 18-0221, clone 8G7G3/1, 1:100), TTF-1/Nkx2.1 (Rabbit, Seven Hills Bioreagents, Cincinnati, Ohio, Cat#WRAB-1231, 1:1000), p63α (rabbit, Santa Cruz, sc-8344, clone H-129, 1:100), Sox2 (Rabbit, stemgent, 09-0024, 1:100), Pax 6 (rabbit, Covance, Princeton, N.J., Cat#PRB-278P, 1:300), Pax8 (mouse, Abcam, Cambridge, Mass., Cat#ab53490, 1:100), EpCAM (APC conjugated, mouse, BD Biosciences, BDB347200), Tuj1 (mouse, Sigma, T8578, Clone 2G10, 1:4000), Mucin5AC (mouse (Biotin), Abcam, ab79082, clone 45M1, 1:100), Mucin5B (rabbit, Santa Cruz, sc-20119, clone H-300, 1:100), Mucin2 (rabbit, Santa Cruz, sc-15334, clone H-300, 1:100), Foxj1 (mouse, e-bioscience, San Diego, Calif., Cat#14-9965-82, Clone: 2A5, 1:100), cc-10 (goat, Santa Cruz, clone C-20, sc-9770, 1:100), pro-SPC (rabbit, Seven Hills, WRAB-9337, 1:2000), mature-SPC (rabbit, Seven Hills, WRAB-76694, 1:1000), mature SPB (rabbit, Seven Hills, WRAB-48604, 1:1000), ABCA3 (rabbit, Seven Hills, WRAB-70565, 1:100), Mucin1 (Armenian Hamster, NeoMarkers, Fremont, Calif., Cat#HM-1630-P1ABX, clone MH1, 1:100), Podoplanin (rabbit, Santa Cruz, sc-134482 , FL-162, 1:100), AQP5 (goat, Santa Cruz, sc-9890, clone G-19, 1:100). Secondary antibodies were donkey anti-mouse whole IgG-Alexa Fluor 488, 715-545-150, donkey anti-mouse whole IgG-Alexa Fluor 647, 715-605-150, donkey anti-rabbit whole IgG-Alexa Fluor 488, 711-545-152, donkey anti-rabbit whole IgG-Cy3, 711-166-152, donkey anti-goat whole IgG-Alexa Fluor 488, donkey anti-goat whole IgG-Cy3, 705-165-147, donkey anti-goat whole IgG-Alexa Fluor 647, 705-605-147, all from Jackson ImmunoResearch.
For d6-15 lung progenitor induction (9 days) , the AFE from Example 3 were treated with a ‘ventralization’ cocktail containing CHIR99021, 3 μM (WNT signaling agonist), human FGF10, 10 ng/ml; human FGF7, 10 ng/ml; human BMP4, 10 ng/ml; murine EGF, 20 ng/ml and all-trans retinoic acid (ATRA), 0-1 μM (all from R&D, except CHIR99021 from (Stemgent, Cambridge. Mass.) and ATRA from Sigma) in SFD media for 8-10 days. This treatment produced lung and airway progenitor cells (also herein referred to as “lung field progenitor cells”). At this stage, the lung progenitor cells were early, and they might have committed to a lineage of either lung or airway epithelium, but we wouldn't be able to know because the corresponding airway and distal lung specific markers are not expressed at this stage yet.
To examine the contribution of each of the factors to the specification of lung and airway progenitors, each of the factors was withdrawn from the ‘ventralization’ cocktail (i.e., CHIR99021, FGF10, FGF7, BMP4 and EGF), or blocked by specific inhibitors (i.e., NOGGIN as biological inhibitor of BMP4 signaling and IWP2 as pharmacological inhibitor of WNT signaling), or added at different concentrations (i.e., RA 0, 0.05, 0.1, 0.5, 1 μM, and BMS493 (10 μM, Tocris) as RA inhibitor). […]

RUES2 cells [2] = test: RA concentration in the ventralization cocktail (NKX2.1 and FOXA2 mRNA and protein); assay type: cell-based, human
Procedure: FIG. 2.(a) Expression of NKX2.1 and FOXA2 mRNA (lower left) and protein (lower right) after culture of RUES2 cells according to the protocol on top of the panel using various concentrations of RA during the ‘ventralization’ stage. Triplicate experiments representative of 3 independent experiments, *, P<0.05, compared with 0.5 μM RA group. (b) 10× tile scan of 25 (5×5) contiguous fields showing expression of FOXA2, SOX2 and NKX2.1 in RUES2 cells cultured according to the protocol on top of the panel. (c) 20× tile scan of 4 (2×2) contiguous fields showing expression of TUJ1, NKX2.1 and FOXA2.1 in RUES2 cells cultured according to the protocol on top of panel (b). […]
Total RNA was extracted using Trizol (Invitrogen), phase lock tubes (5′ Prime) and RNeasy kit (Qiagen, Valencia, Calif.). RNA concentration was measured with a NanoDrop 2000 […] (Thermo Fisher Scientific). […] Real-time quantitative PCR was performed on ABI vii7A Thermocycler [Applied Biosystems (Life Technologies)] using ABI Power SYBR Green PCR Master Mix [Applied Biosystems (Life Technologies)]. […] Absolute quantification of each gene was obtained using a standard curve of serial diluted genomic DNA and normalized to housekeeping genes β-ACTIN and TBP (Tata Box Binding protein). […]

[3] = factor removed from the CFKB cocktail, d6-d15

Cc1ccc2nc(NC(=O)CSc3nc4c(c(=O)n3-c3ccccc3)SCC4)sc2c1 [IWP2]
generation of NKX2.1+ cells (RUES2 cells [1]; CHIR removed plus additional blockade of endogenous WNT signaling by the substance): completely abrogated

Cc1c[nH]c(-c2cnc(NCCNc3ccc(C#N)cn3)nc2-c2ccc(Cl)cc2Cl)n1 [CHIR]
effect of removing the factor on generation of FOXA2+ and FOXA2+NKX2.1+ cells (RUES2 cells [1]; [3]): severely reduced

CC1=C(/C=C/C(C)=C/C=C/C(C)=C/C(=O)O)C(C)(C)CCC1 [RA, all-trans retinoic acid]
NKX2.1 mRNA and NKX2.1+ fraction (RUES2 cells [2]; higher RA concentrations, FOXA2+ endoderm maintained): dropped | induction of NKX2.1 and FOXA2 mRNA and protein (RUES2 cells [2]; low RA concentrations (0.05-0.1 μM)): optimal induction

B1: NOGGIN: biological inhibitor of BMP4 signaling (protein, UniProt Q13253 28-232, looked up)
Noggin: QHYLHIRPAPSDNLPLVDLIEHPDPIFDPKEKDLNETLLRSLLGGHYDPGFMATSPPEDRPGGGGGAAGGAEDLAELDQLLRQRPSGAMPSEIKGLEFSEGLAQGKKQRLSKKLRRKLQMWLWSQTFCPVLYAWNDLGSRFWPRYVKVGSCFSKRSCSVPEGMVCKPSKSVHLTVLRWRCQRRGGQRCGWIPIQYPIISECKCSC
generation of FOXA2+NKX2.1+ cells (RUES2 cells [1]; BMP signaling blocked by addition of the substance during ventralization stage): less than 5%

B2: FGF7: human FGF7 (KGF), factor of the ventralization cocktail (protein, UniProt P21781 32-194, looked up)
Fibroblast growth factor 7: CNDMTPEQMATNVNCSSPERHTRSYDYMEGGDIRVRRLFCRTQWYLRIDKRGKVKGTQEMKNNYNIMEIRTVAVGIVAIKGVESEFYLAMNKEGKLYAKKECNEDCNFKELILENHYNTYASAKWTHNGGEMFVALNQKGIPVRGKKTKKEQKTAHFLPMAIT
effect of removing the factor on generation of FOXA2+ and FOXA2+NKX2.1+ cells (RUES2 cells [1]; [3]): no effect

B3: FGF10: human FGF10, factor of the ventralization cocktail (protein, UniProt O15520 38-208, looked up)
Fibroblast growth factor 10: QALGQDMVSPEATNSSSSSFSSPSSAGRHVRSYNHLQGDVRWRKLFSFTKYFLKIEKNGKVSGTKKENCPYSILEITSVEIGVVAVKAINSNYYLAMNKKGKLYGSKEFNNDCKLKERIEENGYNTYASFNWQHNGRQMYVALNGKGAPRRGQKTRRKNTSAHFLPMVVHS
effect of removing the factor on generation of FOXA2+ and FOXA2+NKX2.1+ cells (RUES2 cells [1]; [3]): no effect

B4: BMP4: human BMP4, factor of the ventralization cocktail (protein, UniProt P12644 293-408, looked up)
Bone morphogenetic protein 4: SPKHHSQRARKKNKNCRRHSLYVDFSDVGWNDWIVAPPGYQAFYCHGDCPFPLADHLNSTNHAIVQTLVNSVNSSIPKACCVPTELSAISMLYLDEYDKVVLKNYQEMVVEGCGCR
generation of NKX2.1+ cells after removing the factor (RUES2 cells [1]; [3]): approximately 40%
